In patent publication US8461362B2, “Protein phosphatase 2A-activating agents” (The Ohio State University Research Foundation, priority 2009, dated 2013):
Read-outs that look alike come from different tables or passages of the source.

Assays:
PP2A = target: T1, PP2A (Homo sapiens, UniProt P67775); test: PP2A immunoprecipitation phosphatase activity assay in drug-treated LNCaP cells; assay type: cell-based; details: for PP2A phosphatase activity: LNCaP cells, 12 h drug exposure; for PP2A expression (protein level): after drug treatment, Western blot
T1 construct: endogenous in cells; host or cells: LNCaP
Description: PP2A activity in drug-treated cells was determined by using a PP2A Immunoprecipitation Phosphatase Assay Kit (Millipore) according to the manufacturer's instructions. LNCaP cells were exposed to DMSO, VES, or TS-1 at the indicated concentrations in 2.5% FBS supplemented medium for 12 h, and subjected to cell lysis in a phosphate-free lysis buffer containing 20 mmol/L imidazole-HCl, pH 7.0, 2 mM EDTA, 2 mM EGTA, 2 mM AEBSF, 1 mM EDTA, 130 μM bestatin, 14 μM E-64, 1 μM leupeptin, and 0.3 μM aprotinin. The suspension was sonicated (Virtis) at 20% output for 10 sec, followed by centrifugation at 2000×g for 5 min. One-μL aliquots of the supernatants were taken for protein determination by BCA assays, and the remaining supernatants were used for phosphatase activity assays. Aliquots of cell lysates containing 400 μg of proteins were combined with 4 μg of anti-PP2Ac antibody (Millipore), to which was added PP2A assay buffer (20 mmol/L Hepes pH 7.0, 100 mM NaCl) to a final volume of 500 μL followed by 40 μL of Protein A-agarose. Mixtures were incubated at 4° C. for 2 h, and briefly centrifuged. The immunocomplexes were washed and used for the phosphatase activity assay. The amounts of PP2A in the immunocomplexes were determined semi-quantitatively by Western blotting.

LNCaP cells = test: MTT viability assay, LNCaP cells; assay type: cell-based
Description: (§4) LNCaP androgen-dependent (p53^+/+) and PC-3 androgen-nonresponsive (p53^−/−) prostate cancer cells were purchased from the American Type Culture Collection (Manassas, Va.), and cultured in RPMI 1640 medium containing 10% heat-inactivated FBS. […] All cell types were cultured at 37° C. in a humidified incubator containing 5% CO2. Cells in log phase growth were harvested by trypsinization for use in the MTT viability assay. LNCaP cells were plated in poly-D-lysine coated culture flasks in order to assist cell adherence to the surface. Prior to drug treatment, cells were plated in a density of 12,000 cells/cm^2 surface area in the respective culture medium for 24-48 h, followed by individual test agents in 2.5% FBS-supplemented RPMI medium.

AR mRNA in LNCaP cells = test: RT-PCR of AR mRNA in LNCaP cells; assay type: cell-based; details: 10 μM
Description: (§1) RNA Isolation and Reverse Transcription (RT)-PCR.
(§2) LNCaP cells were subject to total RNA isolation by using a Trizol reagent (Invitrogen Corporation, CA). RNA concentrations were determined by measuring absorption at 260 nm in a spectrophotometer. Aliquots of 2 μg of total RNA from each sample were reverse transcribed to cDNAs using the iScript cDNA Synthesis Kit (Bio-Rad) according to the manufacturer's instructions. PCR products were resolved electrophoretically in 1.2% agarose gels and visualized by ethidium bromide staining.

[1] = tested on: Sp1 mRNA and Sp1 target genes VEGF, Mdm2, DNMT1; test: mRNA expression of Sp1 and Sp1 downstream target genes in LNCaP cells; assay type: cell-based; details: for Sp1 mRNA expression: high doses
Description: as §1, §2

[2] = tested on: normal prostate epithelial cells (PrECs); test: MTT viability assay, normal prostate epithelial cells
Description: as §4

Sp1 = Sp1 protein expression, stability and ubiquitination in LNCaP cells; assay type: cell-based; details: for Sp1 protein half-life relative to DMSO control / Sp1 protein expression: LNCaP cells; for Sp1 ubiquitination: LNCaP cells expressing HA-ubiquitin and Flag-Sp1, 24 h; for Sp1 protein expression: Western blot
Description: (§3) Cells cultured in T25 flasks were collected by scraping, and cell pellets were washed once with PBS. Cells were lysed in a lysis buffer consisting of 1% SDS, 10 mM EDTA and 50 mM Tris-HCl, pH 8.1, in the presence of a commercial protease inhibitor cocktail from Aldrich-Sigma (2 mM AEBSF, 1 mM EDTA, 130 μM bestatin, 14 μM E-64, 1 μM leupeptin, and 0.3 μM aprotinin). Following a 10-sec sonication using 20% output in a Virsonic 300 sonicator (Virtis, Gardiner N.Y.) to disrupt cellular organelles and genomic DNA, cell lysates were centrifuged at 15,200×g for 15 minutes. One μL of the suspension was used for protein determination using a colorimetric BCA assay (Pierce, Rockford, Ill.), and to the remaining solution was added an equivalent volume of 2×SDS-polyacrylamide gel electrophoresis sample loading buffer (62.5 mM Tris-HCl, pH 6.8, 4% SDS, 5% β-mercaptoethanol, 20% glycerol, and 0.1% bromophenol blue), and boiled for 5 min. Equal amounts of proteins were resolved in 8% SDS-polyacrylamide gels, and transferred to nitrocellulose membranes using a semidry transfer cell. The transblotted membrane was washed twice with Tris-buffered saline containing 0.1% Tween 20 (TBST). After blocking with TBST containing 5% nonfat milk for 40 min, the membrane was incubated with the appropriate primary antibody in TBST-1% nonfat milk at 4° C. overnight. All primary antibodies were diluted 1:1000 in 1% nonfat milk-containing TBST. After treatment with the primary antibody, the membrane was washed three times with TBST for a total of 15 min, followed by incubation with goat anti-rabbit or anti-mouse Immunoglobulin G (IgG)-horseradish peroxidase conjugates (diluted 1:2000) for 1 h at room temperature and four washes with TBST for a total of 1 h. The immunoblots were visualized by enhanced chemiluminescence.
LNCaP cells were co-transfected with 5 μg each of Flag-Sp1 and HA-ubiquitin plasmids in an Amaxa Nucleofector using a LNCaP-specific nucleofector kit. These transiently transfected cells were seeded in 6-well plates at 2×10^5 per well. After 48-h incubation, cells were exposed to VES or TS-1 at the indicated concentration for 48 h, and lysed by a radioimmunoprecipitation assay lysis buffer (Santa Cruz Biotechnology) in the presence of a freshly prepared cocktail of phosphatase and protease inhibitors (2 mmol/L AEBSF, 1 mM EDTA, 130 μM bestatin, 14 μM E-64, 1 μM leupeptin, and 0.3 μM aprotinin, 2 mM imidazole, 1 mM sodium fluoride, 1.15 mM sodium molybdate, 1 mM sodium orthovanadate, and 4 mmol/L sodium tartrate dihydrate). After centrifugation at 13,000×g for 15 min, the supernatants were collected, preincubated with protein A/G agarose (Santa Cruz Biotechnology) for 15 min, and centrifuged at 1,000×g for 5 min. Supernatant (20 μL) were stored at 4° C. to be used as input, whereas the remaining supernatant was exposed to 4 μg of anti-Sp1 antibodies at 4° C. for 12 h, followed by protein A/G agarose beads at 4° C. for another 2 h. After brief centrifugation, immunoprecipitates were collected, washed with the aforementioned lysis buffer four times, suspended in 2×SDS sample buffer, and subjected to Western blot analysis with antibodies against HA and Flag.

[3] = tested on: Akt, ERK, JNK and p38 phosphorylation in LNCaP cells; test: Western blot of kinase phosphorylation in LNCaP cells; assay type: cell-based
Description: as §3, with “All primary antibodies were diluted 1:1000 in 1% nonfat milk-containing TBST. After treatment with the primary antibody, the membrane was washed three times with TBST for a total of 15 min, followed by incubation with goat anti-rabbit or anti-mouse Immunoglobulin G (IgG)-horseradish peroxidase conjugates (diluted 1:2000) for 1 h at room temperature and four washes with TBST for a total of 1 h. The immunoblots were visualized by enhanced chemiluminescence.” left out

[4] = tested on: AR and its target gene product PSA in LNCaP cells; test: Western blot of AR and PSA expression in LNCaP cells; assay type: cell-based; details: LNCaP cells, 72 h of incubation, 2.5% FBS, Western blot, read-out: concentration reducing expression of AR and PSA by 50%
Description: as §3

[5] = tested on: normal prostate epithelial cells (PrECs)
Description: as §4

T1 sequence (P67775 whole entry): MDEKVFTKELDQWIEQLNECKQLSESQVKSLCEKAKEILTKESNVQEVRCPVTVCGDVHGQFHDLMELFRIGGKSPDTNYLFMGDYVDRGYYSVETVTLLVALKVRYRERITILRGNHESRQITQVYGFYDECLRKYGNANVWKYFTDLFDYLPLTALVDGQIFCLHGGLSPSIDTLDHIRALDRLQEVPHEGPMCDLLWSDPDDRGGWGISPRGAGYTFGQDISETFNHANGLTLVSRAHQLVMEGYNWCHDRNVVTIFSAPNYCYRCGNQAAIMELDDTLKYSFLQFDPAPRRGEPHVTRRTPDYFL

IC50 ([4]; Homo sapiens) [µM] | Compound | PP2A phosphatase activity (PP2A) | PP2A expression (protein level) (PP2A) | cell viability of LNCaP cells (LNCaP cells) | AR mRNA transcript level (AR mRNA in LNCaP cells) | transcription of Sp1 downstream target genes (VEGF, Mdm2, DNMT1) [1] | Sp1 mRNA expression [1] | antiproliferative effect on PrECs relative to malignant cells [2] | Sp1 protein half-life relative to DMSO control (Sp1) | Sp1 ubiquitination (Sp1) | Sp1 protein expression (Sp1) | phosphorylation levels of Akt, ERK, JNK, p38 [3] | antiproliferative effect on PrECs relative to malignant cells [5] | IC50 [4] [µM]
5 | Cc1c(C)c2c(c(C)c1OC(=O)CCC(=O)O)CCC(C)(CCCC(C)CCCC(C)C)O2 (stereo not drawn) [TS-1, succinic acid mono-[2-(4,8-dimethyl-nonyl)-2,5,7,8-tetramethylchroman-6-yl]ester] | increase PP2A phosphatase activity | without affecting its expression | suppressing the cell viability | time-dependent reduction | dose-dependent transcriptional repression | remained unaltered | resistant | shortened half-life | increased the extent of Sp1 ubiquitination | reduce Sp1 levels | dose-dependent reduction in the phosphorylation levels of all four kinases examined | – | –
– | Cc1c(C)c2c(c(C)c1OC(=O)CCC(=O)O)CC[C@@](C)(CCC[C@H](C)CCC[C@H](C)CCCC(C)C)O2 [VES, α-tocopheryl succinate] | increase PP2A phosphatase activity | without affecting its expression | suppressing the cell viability | time-dependent reduction | dose-dependent transcriptional repression | remained unaltered | – | shortened half-life | increased the extent of Sp1 ubiquitination | reduce Sp1 levels | dose-dependent reduction in the phosphorylation levels of all four kinases examined | resistant | ≥ 10
